According to US20200206200A1, “PROPHYLACTIC AND/OR THERAPEUTIC AGENT CONTAINING PYRIDYLAMINOACETIC ACID COMPOUND” (priority 2015, published 2020):
“Also recorded” adds a separate entry of the source.

Tested on: ocular hypertensive monkeys
Test: Intraocular pressure-lowering effect in laser-induced ocular hypertensive monkeys
Assay type: in vivo, Macaca fascicularis
Conditions: 0.01 w/v% solution
Method: To investigate the usefulness of the present compound A, an intraocular pressure-lowering effect of the present compound A was tested in experimental animals (ocular hypertensive monkeys). Regarding test solutions, a reference solution not containing the present compound A was used as a control, a solution containing the present compound A was prepared as Example 1 of the invention of the present application, and a latanoprost eye drop was prepared as Comparative Example 1, as shown below.
To 1.7 g of polyoxyl 35 castor oil, 10 mL of a 0.5% (w/v) disodium edetate/10% (w/v) glycerin solution, 1 mL of a 1% (w/v) benzalkonium chloride solution, 30 mL of purified water, and 50 mL of a 2% (w/v) boric acid/0.2% (w/v) sorbic acid solution were added and dissolved therein. […]
(2) The intraocular pressure was measured immediately before instillation of one of the test solutions (the above-described control, Example 1, and Comparative Example 1), and employed as the initial intraocular pressure. […]
(4) After 2 hours, 4 hours, and 6 hours had passed from the instillation of the test solution, one drop of the 0.4% oxybuprocaine hydrochloride eye drop was instilled for local anesthesia to the eye whose intraocular pressure was to be measured, and then the intraocular pressure was measured. In addition, the intraocular pressure was measured three times, and the average value was shown in the results. […]

CC(C)OC(=O)CNc1cccc(CN(Cc2ccc(-n3cccn3)cc2)S(=O)(=O)c2cccnc2)n1 [present compound A, isopropyl (6-{ [4-(pyrazol-1-yl)benzyl] (pyridin-3-ylsulfonyl)aminomethyl}pyridin-2-ylamino)acetate]
intraocular pressure-lowering activity (in words): larger than that in the latanoprost-treated group; also recorded: rapidly provided an excellent intraocular pressure-lowering effect | time after administration by which excellent intraocular pressure-lowering activity was exhibited: ≤ 2 h
